From ChEMBL document CHEMBL3137440, “DNDi T. cruzi fenarimol series dataset from which preclinical candidate EPL-BS0967 was identified (see also related datasets: CHEMBL3137386 and CHEMBL2448688)”
Converted amounts (≈) assume the structure as drawn.

Experiments:
Trypanosoma cruzi [1] = assay: (§1) DNDI: Chagas in Vitro; format: functional, Tulahuen C4 (LacZ)
[2] = DNDI: Cytotoxicity against L-6 rat myoblasts from skeletal musclE; conditions: L6 rat skeletal muscle myoblasts, IC50
Trypanosoma cruzi [3] = assay: as §1; format: functional, organism-based, Tulahuen C4 (LacZ)
in vitro [4] = conditions: human, microsomes
[5] = DNDI: Lipophilicity (gLogD) at pH 3; conditions: buffer
in vitro [6] = conditions: human, microsomes; remark: listed apart in the source
[7] = DNDI: Solubility in phosphate buffer at pH 6.5 determined by nephelometry
Cytochrome P450 3A4 = Cytochrome P450 3A4 (Homo sapiens, UniProt P08684)
Sequence of Cytochrome P450 3A4 (P08684 whole entry): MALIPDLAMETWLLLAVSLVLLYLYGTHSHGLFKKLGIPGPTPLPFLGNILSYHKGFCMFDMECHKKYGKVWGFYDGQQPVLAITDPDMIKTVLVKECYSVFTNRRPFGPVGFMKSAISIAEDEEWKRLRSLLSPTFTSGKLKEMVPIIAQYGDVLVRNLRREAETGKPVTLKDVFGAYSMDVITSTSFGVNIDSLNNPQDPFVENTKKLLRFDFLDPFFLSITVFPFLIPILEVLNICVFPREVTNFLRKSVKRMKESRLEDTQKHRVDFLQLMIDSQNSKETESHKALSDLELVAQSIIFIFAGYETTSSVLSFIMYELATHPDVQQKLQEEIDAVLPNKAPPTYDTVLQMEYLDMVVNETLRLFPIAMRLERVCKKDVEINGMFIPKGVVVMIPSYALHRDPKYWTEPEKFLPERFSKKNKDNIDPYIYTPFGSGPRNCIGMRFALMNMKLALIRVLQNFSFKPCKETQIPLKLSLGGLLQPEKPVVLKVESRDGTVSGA

[8] = DNDI: Lipophilicity (gLogD) at pH 7.4; conditions: buffer
in vitro [9] = conditions: human, microsomes; remark: listed apart in the source
[10] = DNDI: Solubility in 0.01M HCl at pH 2 determined by nephelometry
[11] = Trypanosoma cruzi, Tulahuen C4 (LacZ)

In the case of `N#Cc1ccc(N(c2cccnc2)C2CCN(c3ccc(C(F)(F)F)cc3C#N)CC2)cc1`, the IC90 (Trypanosoma cruzi [1]; [11]) is reported as 4 nM, the IC50 [2] is reported as > 100000 nM and the IC50 (Trypanosoma cruzi [3]; [11]) is reported as 2 nM.

`CS(=O)(=O)c1ccc(N2CCC(N(c3ccc(Cl)cc3)c3cccnc3)CC2)cc1` showed a half-life (in vitro [4]) of 13.1 min, an IC90 (Trypanosoma cruzi [1]; [11]) of 5.7 nM and a chromatographic logD ([5]; pH 3) of 2.3. For the same compound, the hepatic extraction ratio (in vitro [6]) was 0.88, the solubility kinetic [7] was < 1.6 µg/mL and the IC50 (Trypanosoma cruzi [3]; [11]) was 2.18 nM. It also gave an IC50 (Cytochrome P450 3A4) of 2000 nM, a chromatographic logD ([8]; pH 7.4) of 3.9 and a microsomal CLint (in vitro [9]) of 132 µL/min/mg. The solubility kinetic [10] was > 100 µg/mL.

For `O=C(c1ccccc1)N1CCC(N(c2ccc(C(F)(F)F)cc2)c2cccnc2)CC1`, the IC90 (Trypanosoma cruzi [1]; [11]) was 16.6 nM and the IC50 (Trypanosoma cruzi [3]; [11]) was 7.46 nM.

In the case of `FC(F)(F)c1ccc(N(c2cccnc2)C2CCN(c3ccc(C(F)(F)F)cn3)CC2)cc1`, the IC90 (Trypanosoma cruzi [1]) is reported as > 100 nM and the IC50 (Trypanosoma cruzi [3]) is reported as 19.7 nM.

With `FC(F)(F)c1ccc(N(c2cccnc2)C2CCN(c3ccc(C(F)(F)F)nc3)CC2)cc1` the IC90 (Trypanosoma cruzi [1]; [11]) was 32 nM.

`FC(F)(F)c1ccc(N(c2cccnc2)C2CCN(c3ncccn3)CC2)cc1` gave a half-life (in vitro [4]) of 8.8 min, an IC90 (Trypanosoma cruzi [1]; [11]) of 23 nM and an IC50 [2] of 53900 nM. For the same compound, the chromatographic logD ([5]; pH 3) was 3.5, the solubility kinetic [7] was 1.6 µg/mL (≈ 4.01 µM) and the IC50 (Trypanosoma cruzi [3]; [11]) was 17 nM. For the same compound, the chromatographic logD ([8]; pH 7.4) was 4.4, the microsomal CLint (in vitro [9]) was 196 µL/min/mg and the solubility kinetic [10] was > 100 µg/mL.

`FC(F)(F)c1ccc(N2CCC(N(c3ccc(C(F)(F)F)cc3)c3cncnc3)CC2)cc1` showed a half-life (in vitro [4]) of 25.7 min, an IC90 (Trypanosoma cruzi [1]; [11]) of 11 nM and an IC50 [2] of 76500 nM. For the same compound, the chromatographic logD ([5]; pH 3) was > 5.3, the solubility kinetic [7] was 3.1 µg/mL (≈ 6.65 µM) and the IC50 (Trypanosoma cruzi [3]; [11]) was 7 nM. The chromatographic logD ([8]; pH 7.4) was 5.2, the microsomal CLint (in vitro [9]) was 67.5 µL/min/mg and the solubility kinetic [10] was < 1.6 µg/mL.

For `CN(C)S(=O)(=O)c1cc(C(F)(F)F)ccc1N1CCC(N(c2ccc(C#N)cc2)c2cccnc2)CC1`, the IC90 (Trypanosoma cruzi [1]; [11]) was 11 nM, the IC50 [2] was > 100000 nM and the IC50 (Trypanosoma cruzi [3]; [11]) was 6 nM.

`COc1ccc(CN2CCC(N(c3ccc(C(F)(F)F)cc3)c3cccnc3)CC2)cc1` showed a half-life (in vitro [4]; t (1 / 2)) of 31 min, an IC90 (Trypanosoma cruzi [1]; [11]) of 92 nM and an IC50 [2] of 16300 nM. For the same compound, the chromatographic logD ([5]; pH 3, logD) was 2, the solubility kinetic [7] was 6.3 µg/mL (≈ 14.3 µM) and the IC50 (Trypanosoma cruzi [3]; [11]) was 57 nM. The chromatographic logD ([8]; pH 7.4, logD) was 4.9, the microsomal CLint (in vitro [9]; CLint) was 56 µL/min/mg and the solubility kinetic [10] was > 100 µg/mL.

In the case of `Cc1ccc(N2CCC(N(c3ccc(C(F)(F)F)cc3)c3cccnc3)CC2)cn1`, the IC90 (Trypanosoma cruzi [1]; [11]) is reported as 340 nM, the IC50 [2] is reported as > 100000 nM and the IC50 (Trypanosoma cruzi [3]; [11]) is reported as 151 nM.

Work on `Cc1ccccc1CN1CCC(N(c2ccc(C(F)(F)F)cc2)c2cccnc2)CC1` yielded a half-life (in vitro [4]; t (1 / 2)) of 14.1 min, an IC90 (Trypanosoma cruzi [1]; [11]) of 19 nM and a chromatographic logD ([5]; pH 3, logD) of 2. The IC50 (Trypanosoma cruzi [3]; [11]) was 7 nM, the chromatographic logD ([8]; pH 7.4, logD) was > 5.3 and the microsomal CLint (in vitro [9]; CLint) was 123 µL/min/mg. The solubility kinetic [10] was > 100 µg/mL.

`FC(F)(F)c1ccc(N(c2cccnc2)C2CCN(c3ccc(Cl)cc3)CC2)cc1` gave a half-life (in vitro [4]) of 51 min, an IC90 (Trypanosoma cruzi [1]) of 25 nM and an IC90 (Trypanosoma cruzi [1]; [11]) of 27 nM. The IC50 [2] was > 100000 nM, the chromatographic logD ([5]; pH 3) was > 5.3 and the solubility kinetic [7] was < 1.6 µg/mL. The IC50 (Trypanosoma cruzi [3]) was 22 nM, the IC50 (Trypanosoma cruzi [3]; [11]) was 15 nM and the chromatographic logD ([8]; pH 7.4) was > 5.3. For the same compound, the microsomal CLint (in vitro [9]) was 34 µL/min/mg and the solubility kinetic [10] was > 100 µg/mL.

Work on `FC(F)(F)c1ccc(CN2CCC(N(c3ccc(C(F)(F)F)cc3)c3cccnc3)CC2)cc1` yielded an IC90 (Trypanosoma cruzi [1]; [11]) of 80 nM and an IC50 (Trypanosoma cruzi [3]; [11]) of 33 nM.

Work on `FC(F)(F)c1ccc(N(c2cccnc2)C2CCN(Cc3ccccc3C(F)(F)F)CC2)cc1` yielded a half-life (in vitro [4]; t (1 / 2)) of 18.7 min, an IC90 (Trypanosoma cruzi [1]; [11]) of 36 nM and a chromatographic logD ([5]; pH 3, logD) of 2.7. The solubility kinetic [7] was 1.6 µg/mL (≈ 3.34 µM), the IC50 (Trypanosoma cruzi [3]; [11]) was 9 nM and the chromatographic logD ([8]; pH 7.4, logD) was > 5.3. For the same compound, the microsomal CLint (in vitro [9]; CLint) was 92.8 µL/min/mg and the solubility kinetic [10] was > 100 µg/mL.

`FC(F)(F)c1ccc(N(c2cccnc2)C2CCN(c3ccc(Cl)cn3)CC2)cc1` showed an IC90 (Trypanosoma cruzi [1]; [11]) of 83 nM and an IC50 (Trypanosoma cruzi [3]; [11]) of 39 nM.

With `FC(F)(F)c1ccc(N(c2cccnc2)C2CCN(c3cccc(C(F)(F)F)c3)CC2)cc1` the IC90 (Trypanosoma cruzi [1]; [11]) was 312 nM, the IC50 [2] was > 100000 nM and the IC50 (Trypanosoma cruzi [3]; [11]) was 210 nM.

Work on `FC(F)(F)c1ccc(N(c2cccnc2)C2CCN(c3ccccn3)CC2)cc1` yielded an IC90 (Trypanosoma cruzi [1]; [11]) of 51 nM and an IC50 (Trypanosoma cruzi [3]; [11]) of 24 nM.

With `CC(C)(O)CN1CCC(N(c2ccc(C#N)cc2)c2cccnc2)CC1` the half-life (in vitro [4]; t (1 / 2)) was 142 min, the IC90 (Trypanosoma cruzi [1]; [11]) was 71 nM and the IC50 [2] was > 100000 nM. The chromatographic logD ([5]; pH 3, logD) was 0.7, the solubility kinetic [7] was > 100 µg/mL and the IC50 (Trypanosoma cruzi [3]; [11]) was 27 nM. For the same compound, the chromatographic logD ([8]; pH 7.4, logD) was 2.2, the microsomal CLint (in vitro [9]; CLint) was 12.2 µL/min/mg and the solubility kinetic [10] was > 100 µg/mL.

In the case of `Cc1cncc(N2CCC(N(c3ccc(C(F)(F)F)cc3)c3cccnc3)CC2)c1`, the IC90 (Trypanosoma cruzi [1]; [11]) is reported as 27 nM and the IC50 (Trypanosoma cruzi [3]; [11]) is reported as 9 nM.

`FC(F)(F)c1ccc(N(c2cccnc2)C2CCN(c3ccccc3)CC2)cc1` gave a half-life (in vitro [4]) of 29.7 min, an IC90 (Trypanosoma cruzi [1]; [11]) of 30 nM and an IC50 [2] of 57400 nM. The chromatographic logD ([5]; pH 3) was 4.7, the solubility kinetic [7] was < 1.6 µg/mL and the IC50 (Trypanosoma cruzi [3]; [11]) was 14 nM. The chromatographic logD ([8]; pH 7.4) was > 5.3, the microsomal CLint (in vitro [9]) was 58.4 µL/min/mg and the solubility kinetic [10] was > 100 µg/mL.

With `CS(=O)(=O)c1ccc(N2CCC(N(c3ccc(C#N)cc3)c3cccnc3)CC2)cc1` the half-life (in vitro [4]) was 111 min, the IC90 (Trypanosoma cruzi [1]; [11]) was 6.6 nM and the IC50 [2] was > 100000 nM. For the same compound, the chromatographic logD ([5]; pH 3) was 2.7, the hepatic extraction ratio (in vitro [6]) was 0.47 and the solubility kinetic [7] was 1.6 µg/mL (≈ 3.7 µM). It also gave an IC50 (Trypanosoma cruzi [3]; [11]) of 2.35 nM, a chromatographic logD ([8]; pH 7.4) of 3 and a microsomal CLint (in vitro [9]) of 15.6 µL/min/mg.
